Source: patent EP4796125A1, “TREATMENT OF PATIENT WITH NEGATIVE P53 GENE MUTATION, POSITIVE KRAS GENE MUTATION AND POSITIVE BRCA MUTATION” (Ascentawits Pharmaceuticals, Ltd., priority 2023, dated 2025)

How the values were obtained:
hepatocellular carcinoma = experiment: Phase II clinical trial of AST-3424 conducted in China (CTR20191399); type: in vivo, human
From the text: The clinical trial registration number is CTR20191399.
• 1. Male or female, aged ≥18 years. • 2. Pathohistologically confirmed advanced HCC that cannot be controlled by surgical resection or local therapy. • 3. Previously received standard systemic therapy, including but not limited to, Sorafenib and/or Oxaliplatin-containing systemic chemotherapy, Lenvatinib, Regorafenib, and/or Nivolumab, experienced disease progression, toxicity intolerance, or refusal to continue treatment with these drugs. • 4. At least one measurable lesion according to RECIST 1.1 criteria. Previously irradiated lesions cannot be considered as measurable lesions unless clear radiographic progression is observed after radiotherapy. • 5. […] Eastern Cooperative Oncology Group (ECOG) performance status score of 0 or 1. • 7. Life expectancy ≥ 12 weeks. • 8. With or without HBV or HCV infection. • a. Subjects with HBV infection must have HBV-DNA level less than 2,000 IU/ml, and receive antiviral therapy with entecavir, tenofovir disoproxil fumarate, or tenofovir alafenamide fumarate according to the national guidelines for the prevention and treatment of chronic hepatitis B. The therapy must be maintained during the study and continue for 6 months after the last dose. • b. Subjects with HCV infection (with detectable HCV-RNA or anti-HCV antibodies) may receive treatment according to medical practice. • 9. Child-Pugh score ≤ 6 points. • 10. No history of hepatic encephalopathy. • 11. Before starting to use the study drug, all toxicities from previous anticancer therapies (except alopecia, fatigue, or peripheral neuropathy) must have recovered to Grade 1 or baseline levels (NCI CTCAE Version 5). • 12. Laboratory tests must meet the following criteria. During 14 days before laboratory tests at screening, indicators cannot be corrected by blood transfusion, hematopoietic stimulating factor or albumin infusion is allowed to meet the inclusion criteria. • a. Hemoglobin ≥ 90 g/L; • b. Platelet count ≥ 80 × 10^9/L; • c. Absolute neutrophil count (ANC) ≥ 1.5 × 10^9/L; • d. Serum total bilirubin ≤ 3 mg/dL; • e. ALT and AST ≤ 5.0 × ULN; • f. International normalized ratio (INR) ≤ 2.3 or prothrombin time prolongation ≤ 6 seconds; • g. Albumin ≥ 29 g/L; • h. Creatinine clearance > 50 mL/min as measured according to the Cockcroft-Gault equation. • 13. No history of alcohol abuse, drug addiction or substance abuse within the past year. • 14. Fertile female patients must be in non-lactating and have a negative pregnancy test result within 5 days before the initiation of treatment (positive urine pregnancy test result needs to be confirmed by a serum pregnancy test). • 15. Fertile female and male subjects must agree to use effective contraceptive measures (e.g. surgical sterilization or condom or diaphragm contraceptive measures combined with spermicidal gel or intrauterine contraceptive device [IUD], etc.) with their partners from the start of study participation until 6 months after the last dose. • 16. Voluntary participation in this study, fully understanding of relevant risks, good compliance, and signing the informed consent form. Subjects may also sign a consent form for future biomedical research (FBR). However, subjects who would not participate in FBR may still participate in the main trial.
• 1. Untreated active central nervous system (CNS) metastases or leptomeningeal disease. Subjects with adequately treated CNS metastases may participate if they are confirmed to be stable for at least 4 weeks by clinical examination and brain imaging (MRI or CT) during screening. • 2. History of other malignant tumors within 2 years, except for adequately treated basal cell carcinoma, carcinoma in situ at other sites, or other tumors of which the natural medical history and the treatment will not interfere with the safety or efficacy assessment of the current study. • 3. Major surgery (other than diagnostic surgery) performed within 4 weeks prior to the first dose. • 4. […]

H460 cells = experiment: Applicant's previous cancer cell proliferation inhibition test; type: cell-based; conditions: Homo sapiens, NCI-H460, single drug, applicant's previous test data
NCI-H460 cells = experiment: In vitro proliferation under normoxia conditions (CTG, 72 hours), Example 29; type: cell-based; conditions: Homo sapiens, Table 25, normoxia, alone or + 3 µM AST-3021
Method: (§1) • 1) NCI-H460 and NCI-H460 P53KO # 1 cell suspensions were added to 96-well plate (100 µL per well), with a cell density of 2000 cells/well. • 2) The cells were cultured overnight in a 37°C, 5% CO2 incubator. • 3) Compound Treatment
(§2) Monotherapy: 24 hours after cell plating, each well was supplemented with 99.5 µL of growth medium. Then, 0.5 µL of test compounds at different concentrations was added. The plate was gently shaken to ensure even mixing, and then placed in a 37°C, 5% CO2 incubator.
(§3) Combination therapy: 24 hours after cell plating, each well was supplemented with 99 µL of growth medium. Then, 0.5 µL of the combination compound was added. The plate was gently shaken to ensure even mixing, and then placed in an incubator for 2 hours. Then, 0.5µL of test compounds at different concentrations was added. The plate was gently shaken to ensure even mixing, and then placed in a 37°C, 5% CO2 incubator. • 4) The cell plate was placed in the incubator for 72 hours. • 5) The cell plate to be tested was placed at room temperature and equilibrated for 30 minutes, and 100 µL of medium was discarded from each well. • 6) 25 µL of CTG reagent was added to each well, placed at a fast shaker to shake for 2 minutes, and placed at room temperature for 30 minutes (protected from light). • 7) The chemiluminescence signal value was read using a multifunctional microplate reader with a reading time of 1000 ms. • 8) IC50 (half maximal inhibitory concentration) values were calculated using GraphPad Prism 5 software.

NCI-H460 P53KO #1 cells = experiment: as above; type: cell-based, human; conditions: Table 25
Method: as §1, §2, §3

[1] = 6 cases positive (+) for BRCA gene mutation, as of March 11, 2024
[2] = 8 cases negative (-) for BRCA gene mutation, as of March 11, 2024
[3] = 8 cases positive (+) for p53 gene mutation which may affect protein expression (MUT), as of March 11, 2024
[4] = 9 cases negative (-) for p53 gene mutation (WT), as of March 11, 2024
[5] = 18 liver cancer subjects who completed the clinical efficacy evaluation
[6] = 30 enrolled subjects, as of March 11, 2024
[7] = subgroup of 5 cases negative (-) for BRCA gene mutation, Table 4 data
[8] = subgroup of 5 cases negative (-) for p53 gene mutation or deficiency, Table 4 data
[9] = subgroup of 5 cases positive (+) for BRCA gene mutation, Table 4 data
[10] = subgroup of 5 cases positive (+) for p53 gene mutation or deficiency, Table 4 data

With `C[C@H](OP(=O)(N1CC1)N1CC1)c1ccc([N+](=O)[O-])c(Oc2cccc(C(=O)N(C)C)c2)c1` [AST-3424] the DCR (hepatocellular carcinoma; [1]) was 66.7%, the ORR (hepatocellular carcinoma; [1]) was 16.7% and the “longest OS” value (hepatocellular carcinoma; [1]) was “more than 13.8 months”. For the same compound, the “longest PFS” value (hepatocellular carcinoma; [1]) was “more than 11.5 months”, the “mean OS” value (hepatocellular carcinoma; [1]) was “more than 9.5 months” and the “mean PFS” value (hepatocellular carcinoma; [1]) was 4.5 months. For the same compound, the DCR (hepatocellular carcinoma; [2]) was 50%, the ORR (hepatocellular carcinoma; [2]) was 0% and the “longest OS” value (hepatocellular carcinoma; [2]) was “more than 17.6 months”. The “longest PFS” value (hepatocellular carcinoma; [2]) was 2.9 months, the “mean OS” value (hepatocellular carcinoma; [2]) was “more than 9.4 months” and the “mean PFS” value (hepatocellular carcinoma; [2]) was 1.9 months. For the same compound, the DCR (hepatocellular carcinoma; [3]) was 25%, the ORR (hepatocellular carcinoma; [3]) was 0% and the “longest OS” value (hepatocellular carcinoma; [3]) was over 14.0 months. For the same compound, the “longest PFS” value (hepatocellular carcinoma; [3]) was 1.6 months, the “mean OS” value (hepatocellular carcinoma; [3]) was “more than 9.3 months” and the “mean PFS” value (hepatocellular carcinoma; [3]) was 1.4 months. For the same compound, the DCR (hepatocellular carcinoma; [4]) was 77.8%, the ORR (hepatocellular carcinoma; [4]) was 22.2% and the “longest OS” value (hepatocellular carcinoma; [4]) was over 13.8 months. The “longest PFS” value (hepatocellular carcinoma; [4]) was “more than 11.5 months”, the “mean OS” value (hepatocellular carcinoma; [4]) was “more than 7.7 months” and the “mean PFS” value (hepatocellular carcinoma; [4]) was “more than 4.1 months”. The DCR (hepatocellular carcinoma; [5]) was 61.1%, the ORR (hepatocellular carcinoma; [5]) was 5.6% and the “longest OS” value (hepatocellular carcinoma; [6]) was over 17.6 months. The “longest PFS” value (hepatocellular carcinoma; [6]) was over 11.5 months, the DCR (hepatocellular carcinoma; [7]) was 60% and the ORR (hepatocellular carcinoma; [7]) was 0%. The “mean PFS” value (hepatocellular carcinoma; [7]) was 1.976 months, the DCR (hepatocellular carcinoma; [8]) was 80% and the ORR (hepatocellular carcinoma; [8]) was 20%. For the same compound, the “mean PFS” value (hepatocellular carcinoma; [8]) was 4.1 months, the DCR (hepatocellular carcinoma; [9]) was 80% and the ORR (hepatocellular carcinoma; [9]) was 20%. The “mean PFS” value (hepatocellular carcinoma; [9]) was 3.82 months, the DCR (hepatocellular carcinoma; [10]) was 60% and the ORR (hepatocellular carcinoma; [10]) was 0%. The “mean PFS” value (hepatocellular carcinoma; [10]) was 1.756 months, the IC50 (H460 cells) was 0.47 nM and the IC50 (NCI-H460 cells) was 0.43 nM. For the same compound, the IC50 (NCI-H460 P53KO #1 cells; Homo sapiens, NCI-H460 P53KO # 1, normoxia, alone or + 3 µM AST-3021) was 5.45 nM and the “Ratio, knockout / wild-type” value (NCI-H460 P53KO #1 cells; IC50 in NCI-H460 P53KO # 1 / NCI-H460) was 12.67.
